Results: PubChem BioAssay (NCI)
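Grown in 96-well plates, cells were treated for 48 hours with each compound at five concentrations. Insufficient inhibition: endpoint recorded as highest concentration tested. Abbreviation: GI50, concentration required for 50% inhibition of growth. TGI is the concentration that stops growth completely.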

How the values were obtained:
Assay in all cases: NCI anticancer screen, dose series, 48 h
[1] = test system: UO-31 renal
[2] = test system: OVCAR-5 ovarian
[3] = test system: SK-MEL-2 melanoma
[4] = test system: K-562 leukemia
[5] = test system: MCF7 breast
[6] = test system: CCRF-CEM leukemia
[7] = test system: A549 NSCLC
[8] = test system: MOLT-4 leukemia
[9] = test system: HCT-116 colon
[10] = test system: SN12C renal
[11] = test system: SR leukemia
[12] = test system: COLO 205 colon
[13] = test system: SF-539 CNS
[14] = test system: DU-145 prostate
[15] = test system: SNB-19 CNS
[16] = test system: UACC-62 melanoma
[17] = test system: HCT-15 colon
[18] = test system: NCI/ADR-RES ovarian
[19] = test system: MALME-3M melanoma
[20] = test system: HT29 colon
[21] = test system: NCI-H23 lung
[22] = test system: OVCAR-3 ovarian
[23] = test system: SW-620 colon
[24] = test system: SF-268 CNS
[25] = test system: SK-OV-3 ovarian
[26] = test system: IGROV1 ovarian
[27] = test system: OVCAR-8 ovarian
[28] = test system: HCC-2998 colon
[29] = test system: HOP-92 NSCLC
[30] = test system: MDA-MB-435
[31] = test system: MDA-MB-231 breast
[32] = test system: HOP-62 NSCLC
[33] = test system: HS 578T breast
[34] = test system: EKVX NSCLC
[35] = test system: OVCAR-4 ovarian
[36] = test system: SF-295 CNS
[37] = test system: U251 CNS
[38] = test system: TK-10 renal
[39] = test system: M14 melanoma
[40] = test system: KM12 colon
[41] = test system: NCI-H460 lung
[42] = test system: NCI-H226 lung
[43] = test system: PC-3 prostate
[44] = test system: NCI-H522 lung
[45] = test system: A498 renal
[46] = test system: SNB-75 CNS
[47] = test system: ACHN renal
[48] = test system: SK-MEL-5 melanoma
[49] = test system: T-47D breast
[50] = test system: RXF 393 renal
[51] = test system: BT-549 breast
[52] = test system: CAKI-1 renal
[53] = test system: 786-0 renal
[54] = test system: LOX IMVI melanoma

Compound CCOC(=O)c1c(NC(=O)c2ccc(Cl)cc2)sc2c(CN(C)C)c(O)ccc12 has a GI50 [1] of 4.88 µM, a TGI [1] of 25.7 µM and a GI50 [2] of 9.1 µM. The TGI [2] was 57.2 µM, the GI50 [3] was 6.51 µM and the TGI [3] was 41.1 µM. For the same compound, the GI50 [4] was 1.62 µM, the TGI [4] was 5.07 µM and the GI50 [5] was 7.57 µM. The TGI [5] was > 100 µM, the GI50 [6] was 13.3 µM and the TGI [6] was > 100 µM. The GI50 [7] was 8.07 µM, the TGI [7] was 36.2 µM and the GI50 [8] was 4.11 µM. The TGI [8] was > 100 µM, the GI50 [9] was 6.96 µM and the TGI [9] was 40.8 µM. The GI50 [10] was 14.6 µM, the TGI [10] was > 100 µM and the GI50 [11] was 2.19 µM. It also gave a TGI [11] of 4.82 µM, a GI50 [12] of 1.87 µM and a TGI [12] of 4.1 µM. It also gave a GI50 [13] of 5.2 µM, a TGI [13] of 18.4 µM and a GI50 [14] of 13.2 µM. It also gave a TGI [14] of 47.9 µM, a GI50 [15] of 5.47 µM and a TGI [15] of 24.8 µM. The GI50 [16] was 3.41 µM, the TGI [16] was 14.8 µM and the GI50 [17] was 2.16 µM. It also gave a TGI [17] of 5.76 µM, a GI50 [18] of 8.57 µM and a TGI [18] of 36.1 µM. It also gave a GI50 [19] of 1.85 µM, a TGI [19] of 3.86 µM and a GI50 [20] of 2.48 µM. For the same compound, the TGI [20] was 7.13 µM, the GI50 [21] was 14.6 µM and the TGI [21] was 47.6 µM. The GI50 [22] was 16.2 µM, the TGI [22] was > 100 µM and the GI50 [23] was 2.4 µM. It also gave a TGI [23] of 7.33 µM, a GI50 [24] of 7.63 µM and a TGI [24] of 48.8 µM. For the same compound, the GI50 [25] was 10.9 µM, the TGI [25] was 33.3 µM and the GI50 [26] was 8.88 µM. For the same compound, the TGI [26] was 31.7 µM, the GI50 [27] was 3.55 µM and the TGI [27] was 19.2 µM. The GI50 [28] was 1.83 µM, the TGI [28] was 3.84 µM and the GI50 [29] was 1.78 µM. The TGI [29] was 6.07 µM, the GI50 [30] was 6.62 µM and the TGI [30] was 29.9 µM. The GI50 [31] was 6.53 µM, the TGI [31] was 34.5 µM and the GI50 [32] was 5.58 µM. It also gave a TGI [32] of 27.1 µM, a GI50 [33] of 4.06 µM and a TGI [33] of 26.5 µM. For the same compound, the GI50 [34] was 10.1 µM, the TGI [34] was 31.8 µM and the GI50 [35] was 9.85 µM. For the same compound, the TGI [35] was 71.4 µM, the GI50 [36] was 3.79 µM and the TGI [36] was 16.4 µM. For the same compound, the GI50 [37] was 4.85 µM, the TGI [37] was 23.5 µM and the GI50 [38] was 14.5 µM. The TGI [38] was 34.5 µM, the GI50 [39] was 2.24 µM and the TGI [39] was 5.87 µM. The GI50 [40] was 4.82 µM, the TGI [40] was > 100 µM and the GI50 [41] was 4.71 µM. For the same compound, the TGI [41] was > 100 µM, the GI50 [42] was 18.3 µM and the TGI [42] was > 100 µM. It also gave a GI50 [43] of 8.44 µM, a TGI [43] of 37.3 µM and a GI50 [44] of 21 µM. The TGI [44] was > 100 µM, the GI50 [45] was 6.09 µM and the TGI [45] was 19.9 µM. The GI50 [46] was 3.25 µM, the TGI [46] was 19 µM and the GI50 [47] was 4.28 µM. For the same compound, the TGI [47] was 18.3 µM, the GI50 [48] was 10.8 µM and the TGI [48] was 35.1 µM. For the same compound, the GI50 [49] was 4.88 µM, the TGI [49] was > 100 µM and the GI50 [50] was 2.98 µM. The TGI [50] was 13.4 µM, the GI50 [51] was 13.4 µM and the TGI [51] was > 100 µM. The GI50 [52] was 5.57 µM, the TGI [52] was 32.5 µM and the GI50 [53] was 5.54 µM. For the same compound, the TGI [53] was 20.7 µM, the GI50 [54] was 4.73 µM and the TGI [54] was 18.5 µM.
